Measured values published in article PMC4508619 (Scientific Reports, 2015).
Entries after “also recorded” stand apart in the source; their conditions may differ.

Legend:
Format in all cases: cell-based
[1] = molecular target: T1, rTRPV1 concatemer 3wt/ya (one Y511A subunit) (Rattus norvegicus, UniProt O35433, Y511A); test: Whole-cell patch-clamp, HEK293T cells expressing 3wt/ya concatemer; details: −40 mV
T1 construct: expressed in transfected cells; host or cells: HEK293T, transient, pCDNA3.1+
T1 sequence (O35433 whole entry, stated change not applied): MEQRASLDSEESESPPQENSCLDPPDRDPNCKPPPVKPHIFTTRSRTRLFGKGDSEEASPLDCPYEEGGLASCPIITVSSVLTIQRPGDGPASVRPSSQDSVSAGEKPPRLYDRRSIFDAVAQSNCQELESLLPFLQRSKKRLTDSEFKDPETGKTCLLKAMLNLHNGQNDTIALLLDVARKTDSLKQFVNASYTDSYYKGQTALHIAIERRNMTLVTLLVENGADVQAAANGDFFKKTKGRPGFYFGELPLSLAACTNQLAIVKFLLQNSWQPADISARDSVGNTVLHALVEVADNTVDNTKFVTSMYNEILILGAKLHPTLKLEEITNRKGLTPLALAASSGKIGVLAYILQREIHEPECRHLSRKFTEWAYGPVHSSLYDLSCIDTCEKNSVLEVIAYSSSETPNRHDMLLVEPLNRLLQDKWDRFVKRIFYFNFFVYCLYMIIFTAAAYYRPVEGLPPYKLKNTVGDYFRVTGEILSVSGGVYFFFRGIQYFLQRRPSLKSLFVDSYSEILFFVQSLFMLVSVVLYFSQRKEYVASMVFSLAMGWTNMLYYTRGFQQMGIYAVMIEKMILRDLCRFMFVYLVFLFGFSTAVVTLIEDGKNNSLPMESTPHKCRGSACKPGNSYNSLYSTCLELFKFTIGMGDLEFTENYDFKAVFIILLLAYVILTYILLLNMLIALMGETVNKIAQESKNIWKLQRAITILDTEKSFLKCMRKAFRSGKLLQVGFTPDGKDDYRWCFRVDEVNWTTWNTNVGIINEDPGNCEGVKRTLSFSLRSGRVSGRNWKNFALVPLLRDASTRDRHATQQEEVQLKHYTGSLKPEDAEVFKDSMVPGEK
T1 sequence (O35433 2-838 limits assumed, stated change not applied): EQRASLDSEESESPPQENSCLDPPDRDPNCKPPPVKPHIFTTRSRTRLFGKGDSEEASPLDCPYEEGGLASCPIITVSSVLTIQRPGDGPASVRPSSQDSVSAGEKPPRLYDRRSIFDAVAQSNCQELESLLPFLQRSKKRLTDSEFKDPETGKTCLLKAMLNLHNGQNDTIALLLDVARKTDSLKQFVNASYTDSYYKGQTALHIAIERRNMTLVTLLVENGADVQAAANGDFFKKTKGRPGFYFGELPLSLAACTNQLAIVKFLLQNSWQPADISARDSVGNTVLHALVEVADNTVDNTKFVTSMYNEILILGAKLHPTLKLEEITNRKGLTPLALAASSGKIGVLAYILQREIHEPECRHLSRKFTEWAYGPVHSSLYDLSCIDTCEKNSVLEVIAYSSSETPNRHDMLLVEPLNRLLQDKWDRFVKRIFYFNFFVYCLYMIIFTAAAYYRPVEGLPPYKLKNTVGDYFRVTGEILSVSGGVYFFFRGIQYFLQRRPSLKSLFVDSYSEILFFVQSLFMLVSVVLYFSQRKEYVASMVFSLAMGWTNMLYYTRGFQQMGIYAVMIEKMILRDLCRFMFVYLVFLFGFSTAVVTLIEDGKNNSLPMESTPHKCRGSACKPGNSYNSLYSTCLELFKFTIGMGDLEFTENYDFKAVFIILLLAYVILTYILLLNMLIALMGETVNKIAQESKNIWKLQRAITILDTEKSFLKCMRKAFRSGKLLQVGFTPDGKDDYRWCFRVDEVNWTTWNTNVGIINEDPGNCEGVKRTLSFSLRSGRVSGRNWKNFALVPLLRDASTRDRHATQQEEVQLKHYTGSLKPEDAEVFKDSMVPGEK
T1 sequence (O35433 2-838 limits assumed, stated change not applied): as above
T1 sequence (O35433 2-838 Y511A limits assumed): as the sequence (O35433 2-838 limits assumed, stated change not applied) above, with Y510A counted along it
Description: (§1) Next, we determined the concentration-response relationship of the various concatemeric constructs, using the whole-cell configuration of the patch clamp at holding voltage of −40 mV.
(§2) Patch clamp experiments were executed using HEK293T cells in the whole cell or outside-out configuration 24 hrs after transfection, as previously described. 30,000 cells were plated on glass coverslips (12 mm) coated with relevant amounts of poly-D-Lysine (PDL; Sigma-Aldrich, MO, USA) and/or Matrigel (BD-biosciences, MA, USA) according to the configuration (see below). […] Recordings were performed using Axopatch 200B patch clamp amplifier (Molecular Devices, CA, USA), and data was collected and analyzed using pClamp 10.2 software (Molecular Devices, CA, USA). […]
(§3) HEK293T cells were plated on coverslips pre-coated with 0.05 mg/ml poly-D-Lysine (PDL; Sigma-Aldrich, MO, USA) and 1 μg/ml Matrigel (BD-biosciences, Bedford, MA, USA) three hrs prior to recordings. […] To avoid potential voltage errors due to receptor overexpression, dose responses were recorded at −40 mV, with the maximal current limited to ~2.5 nA. […] Proton response recordings were performed with 50 μM Amiloride in the bath solution (Sigma-Aldrich, MO, USA) in order to block natively expressed ASICs[43].
(§4) Dose response curves were calculated by SigmaPlot software (San Jose, CA) using the sigmoidal Hill equation as follows: […]

[2] = molecular target: T2, rTRPV1 concatemer 2wt/2ya (two Y511A subunits) (Rattus norvegicus, UniProt O35433, Y511A); test: Whole-cell patch-clamp, HEK293T cells expressing 2wt/2ya concatemer; details: −40 mV
T2 construct: expressed in transfected cells; host or cells: HEK293T, transient, pCDNA3.1+
T2 sequence (O35433 whole entry, stated change not applied): as the sequence (O35433 whole entry, stated change not applied) above
T2 sequence (O35433 2-838 limits assumed, stated change not applied): as the sequence (O35433 2-838 limits assumed, stated change not applied) above
T2 sequence (O35433 2-838 Y511A limits assumed): as the sequence (O35433 2-838 limits assumed, stated change not applied) above, with Y510A counted along it
T2 sequence (O35433 2-838 Y511A limits assumed): as the sequence (O35433 2-838 limits assumed, stated change not applied) above, with Y510A counted along it
Description: as §1, §2, §3, §4

[3] = molecular target: T3, rTRPV1 concatemer wt/3ya (three Y511A subunits) (Rattus norvegicus, UniProt O35433, Y511A); test: Whole-cell patch-clamp, HEK293T cells expressing wt/3ya concatemer
T3 construct: expressed in transfected cells; host or cells: HEK293T, transient, pCDNA3.1+
T3 sequence (O35433 whole entry, stated change not applied): as the sequence (O35433 whole entry, stated change not applied) above
T3 sequence (O35433 2-838 Y511A limits assumed): as the sequence (O35433 2-838 limits assumed, stated change not applied) above, with Y510A counted along it
T3 sequence (O35433 2-838 Y511A limits assumed): as the sequence (O35433 2-838 limits assumed, stated change not applied) above, with Y510A counted along it
T3 sequence (O35433 2-838 Y511A limits assumed): as the sequence (O35433 2-838 limits assumed, stated change not applied) above, with Y510A counted along it
Description: as §1, §2, §3, §4

[4] = molecular target: T4, rTRPV1 concatemer 4ya (Y511A in all subunits) (Rattus norvegicus, UniProt O35433, Y511A); test: Whole-cell patch-clamp, HEK293T cells expressing 4ya concatemer; details: capsaicin 100 μM, whole-cell voltage ramps −80 to +80 mV
T4 construct: expressed in transfected cells; host or cells: HEK293T, transient, pCDNA3.1+
T4 sequence (O35433 whole entry Y511A): as the sequence (O35433 whole entry, stated change not applied) above, with Y511A counted along it
T4 sequence (O35433 2-838 Y511A limits assumed): as the sequence (O35433 2-838 limits assumed, stated change not applied) above, with Y510A counted along it
T4 sequence (O35433 2-838 Y511A limits assumed): as the sequence (O35433 2-838 limits assumed, stated change not applied) above, with Y510A counted along it
T4 sequence (O35433 2-838 Y511A limits assumed): as the sequence (O35433 2-838 limits assumed, stated change not applied) above, with Y510A counted along it
Description: as §2, with “below). Patch electrodes were fabricated from borosilicate glass using the P1000 Micropipette Puller (Sutter Instrument, CA, USA) and fire-polished using the microforge MF-900 (Narishige, Tokyo, Japan).” for “below).”
as §3

rTRPV1 concatemer wt/3ya = molecular target: T5, rTRPV1 concatemer wt/3ya (Rattus norvegicus, UniProt O35433, Y511A); test: Single-channel outside-out patch recording, Flp-in TREX HEK293 cells, wt/3ya; details: for single-channel average amplitude, wt/3ya / unitary conductance, wt/3ya: +60 mV, outside-out
T5 construct: expressed in transfected cells
T5 sequence (O35433 whole entry, stated change not applied): as the sequence (O35433 whole entry, stated change not applied) above
T5 sequence (O35433 2-838 Y511A limits assumed): as the sequence (O35433 2-838 limits assumed, stated change not applied) above, with Y510A counted along it
T5 sequence (O35433 2-838 Y511A limits assumed): as the sequence (O35433 2-838 limits assumed, stated change not applied) above, with Y510A counted along it
T5 sequence (O35433 2-838 Y511A limits assumed): as the sequence (O35433 2-838 limits assumed, stated change not applied) above, with Y510A counted along it
Text: (§5) In order to facilitate recording from a single channel, we used an inducible system, Flp-in TREX, which allows doxycycline-controlled construct expression levels. […] The membrane potential was held at +60 mV considering that the conductance of TRPV1 receptor channels is higher at positive potentials. The pipette contained standard intracellular patch solution, and the patch of membrane was continuously perfused with standard extracellular solution.
(§6) Briefly, cells were co-transfected (performed as described above) with pcDNA5/FRT/TO containing the gene of interest and the Flp-recombinase expression vector pOG44 into the Flp-In host cell line (Invitrogen, MA, USA) at a ratio of 1:9, respectively, as previously described.
(§7) Patch clamp experiments were executed using HEK293T cells in the whole cell or outside-out configuration 24 hrs after transfection, as previously described. 30,000 cells were plated on glass coverslips (12 mm) coated with relevant amounts of poly-D-Lysine (PDL; Sigma-Aldrich, MO, USA) and/or Matrigel (BD-biosciences, MA, USA) according to the configuration (see below). Patch electrodes were fabricated from borosilicate glass using the P1000 Micropipette Puller (Sutter Instrument, CA, USA) and fire-polished using the microforge MF-900 (Narishige, Tokyo, Japan). Electrodes were coated with Sylgard (World Precision Instrument, FL, USA) to reduce the capacity of the recording pipette and to improve noise characteristics. […] Recordings were performed using Axopatch 200B patch clamp amplifier (Molecular Devices, CA, USA), and data was collected and analyzed using pClamp 10.2 software (Molecular Devices, CA, USA). All experiments were carried out at room temperature.
(§8) Single-channel currents were recorded in the outside-out patch configuration of the patch-clamp technique, as previously described. All single-channel recordings were done using the stable cell line Flp-in TREX 293 cells. Cells were plated on coverslips coated with 0.2 mg/ml PDL one hour prior induction. Doxycycline concentration and induction times for obtaining a membrane patches with a single channel were determined for each construct. Generally, 0.3–1 μg/ml doxycycline was used for 2–4 hrs prior to recordings. Patch electrodes were fire-polished to a resistance of 10–15 MΩ. The pipette solution contained (mM): 130 KCl, 4 NaCl, 2 MgSO4, 0.5 CaCl2, 1 EGTA and 10 HEPES adjusted to pH 7.2 with KOH. Single-channel currents were low-pass filtered at 5 kHz and digitized at 50 kHz. Occasional large brief noise spikes were visually identified and removed from the current traces. Single-channel recordings were analyzed with the pCLAMP 10.2 program Clampfit (Axon Instruments, USA), as previously described. For each concatemeric construct, 150–2000 events were collected from each of 3–5 separate patches. To determine channel amplitude, all-point amplitude histograms were created using data digitally filtered at 2 kHz. To determine channel open probability, traces filtered at 5 kHz were idealized using the half-amplitude threshold crossing method (pCLAMP 10.2)[38].

rTRPV1 (wt) [5] = molecular target: T6, rTRPV1 (wt) (Rattus norvegicus, UniProt O35433); test: Two electrode voltage clamp, Xenopus laevis oocytes expressing wt rTRPV1; details: capsaicin, TEVC
T6 sequence (O35433 whole entry): as the sequence (O35433 whole entry, stated change not applied) above
Description: (§9) The current-voltage relationship was determined using whole-cell patch-clamp recordings.
(§10) Stage V–VI Xenopus laevis oocytes were prepared as previously described. Oocytes were injected up to 24 hr after isolation with a total of 5 ng cRNA, and assayed 5–10 days later. Two electrode voltage-clamp recordings were carried out at RT using GeneClamp 500 connected to digidata1322A and pCLAMP 8.2 (Molecular Devices, CA, USA). Electrodes (Sutter Instruments, CA, USA) were filled with 3 M KCl and had resistance of 0.5–1 MΩ. Oocytes were continuously perfused with normal frog ringer (NFR) solution without calcium containing (mM): 115 NaCl, 2.5 KCl, 2 […], and 10 HEPES, pH 7.4 with NaOH.

[6] = molecular target: T7, concatemeric rTRPV1 (4wt) (Rattus norvegicus, UniProt O35433); test: Two electrode voltage clamp, Xenopus laevis oocytes expressing 4wt concatemer; details: capsaicin, TEVC
T7 sequence (O35433 whole entry): as the sequence (O35433 whole entry, stated change not applied) above
T7 sequence (O35433 2-838 limits assumed): as the sequence (O35433 2-838 limits assumed, stated change not applied) above
T7 sequence (O35433 2-838 limits assumed): as the sequence (O35433 2-838 limits assumed, stated change not applied) above
T7 sequence (O35433 2-838 limits assumed): as the sequence (O35433 2-838 limits assumed, stated change not applied) above
Description: as §9, §10

[7] = molecular target: T8, rTRPV1 concatemer 4qa (E600Q/E648A in all subunits) (Rattus norvegicus, UniProt O35433, E600Q/E648A); test: Whole-cell patch-clamp, HEK293T cells expressing 4qa concatemer; details: capsaicin 1 μM, −40 mV
T8 construct: expressed in transfected cells; host or cells: HEK293T, transient, pCDNA3.1+
T8 sequence (O35433 whole entry E600Q/E648A): as the sequence (O35433 whole entry, stated change not applied) above, with E600Q, E648A counted along it
T8 sequence (O35433 2-838 E600Q/E648A limits assumed): as the sequence (O35433 2-838 limits assumed, stated change not applied) above, with E599Q, E647A counted along it
T8 sequence (O35433 2-838 E600Q/E648A limits assumed): as the sequence (O35433 2-838 limits assumed, stated change not applied) above, with E599Q, E647A counted along it
T8 sequence (O35433 2-838 E600Q/E648A limits assumed): as the sequence (O35433 2-838 limits assumed, stated change not applied) above, with E599Q, E647A counted along it
Description: as §7, with “Japan).” for “Japan). Electrodes were coated with Sylgard (World Precision Instrument, FL, USA) to reduce the capacity of the recording pipette and to improve noise characteristics.”, “All experiments were carried out at room temperature.” left out
as §3

rTRPV1 (wt) [8] = molecular target: T6, rTRPV1 (wt); test: Whole-cell patch-clamp, HEK293T cells transiently expressing wt rTRPV1; set-up: expressed in transfected cells; host or cells: HEK293T, transient, pCDNA3.1+
Description: as §9
as §7, with “Japan).” for “Japan). Electrodes were coated with Sylgard (World Precision Instrument, FL, USA) to reduce the capacity of the recording pipette and to improve noise characteristics.”, “All experiments were carried out at room temperature.” left out
as §3, with “ASICs[43]. […]” for “ASICs[43].”

[9] = molecular target: T7, concatemeric rTRPV1 (4wt); test: Whole-cell patch-clamp, HEK293T cells expressing tetrameric concatemer 4wt; set-up: expressed in transfected cells; host or cells: HEK293T, transient, pCDNA3.1+
Description: as §9, §1, §2
as §3, with “ASICs[43]. […]” for “ASICs[43].”

[10] = molecular target: T7, concatemeric rTRPV1 (4wt); test: Single-channel outside-out patch recording, Flp-in TREX HEK293 cells, 4wt; set-up: expressed in transfected cells; host or cells: HEK293T, transient, pCDNA3.1+
Text: as §5, §6, §7
as §8, with “To determine channel amplitude, all-point amplitude histograms were created using data digitally filtered at 2 kHz. To determine channel open probability, traces filtered at 5 kHz were idealized using the half-amplitude threshold crossing method (pCLAMP 10.2)[38].” left out

[11] = 2 μM capsaicin, +60 mV, outside-out

- Hill coefficient nH for capsaicin, 3wt/ya [1]: 1.1
- Hill coefficient nH for capsaicin, 2wt/2ya [2]: 1.2
- Hill coefficient nH for capsaicin, wt/3ya ([3]; whole-cell, −40 mV): 1.1
- single-channel average amplitude, wt/3ya (rTRPV1 concatemer wt/3ya; 2 μM capsaicin): 4.8 ± 0.5 pA
- unitary conductance, wt/3ya (rTRPV1 concatemer wt/3ya; 2 μM capsaicin): 80 ± 5 pS
- single-channel average amplitude, wt/3ya (rTRPV1 concatemer wt/3ya; 30 μM capsaicin): 4.9 ± 0.4 pA
- unitary conductance, wt/3ya (rTRPV1 concatemer wt/3ya; 30 μM capsaicin): 82 ± 3 pS
- capsaicin concentration required to achieve full TRPV1 activation, wt/3ya (rTRPV1 concatemer wt/3ya; single functional VBS): 30 µM
- average current amplitude ICAP+80mV (±SEM), oocytes, wt (rTRPV1 (wt) [5]): 5.6 ± 0.3 μA
- average current amplitude ICAP+80mV (±SEM), oocytes, 4wt [6]: 4.7 ± 0.2 μA
- capsaicin response, 4qa vs 4wt [7]: unaffected
- average current amplitude ICAP+80mV (±SEM), HEK293T, wt (rTRPV1 (wt) [8]; capsaicin 1 μM, +80 mV): 8.3 ± 1.2 nA
- Hill coefficient nH for capsaicin, wt (rTRPV1 (wt) [8]; whole-cell, −40 mV): 1.3
- average current amplitude ICAP+80mV (±SEM), HEK293T, 4wt ([9]; capsaicin 1 μM, +80 mV): 7.8 ± 1.8 nA
- Hill coefficient nH for capsaicin, 4wt ([9]; whole-cell, −40 mV): 1.4
- capsaicin concentration required to achieve full TRPV1 activation, 4wt [10]: 2 µM
- open probability, 4wt [10, 11]: 0.89 ± 0.10
- single-channel average amplitude, 4wt [10, 11]: 5.2 ± 0.4 pA
- unitary conductance, 4wt [10, 11]: 86 ± 3 pS
Structure (SMILES): COc1cc(CNC(=O)CCCC/C=C/C(C)C)ccc1O [capsaicin]
- response of wt/3ya construct to capsaicin ([3]; capsaicin 100 μM, whole-cell voltage ramps −80 to +80 mV): robust outward-rectifying current; also recorded: robust capsaicin response
- response of 4ya construct to capsaicin [4]: insensitive; also recorded: nearly eliminated
